The results in this text go back to US8859580B2 (Boehringer Ingelheim International GmbH, priority 2007, dated 2014).

As a reminder, the IC50 is the concentration needed to halve the response being measured. High values mean weaker potency in that assay, low ones greater potency in that assay.

Molecules are shown by their SMILES.

For the assay, the target named is T1, 11β-HSD1 (Homo sapiens, UniProt P28845).
T1 construct: detecting cortisol generated from cortisterone by human liver microsomes; from tissue; host or cells: human liver microsomes
T1 sequence (P28845 whole entry): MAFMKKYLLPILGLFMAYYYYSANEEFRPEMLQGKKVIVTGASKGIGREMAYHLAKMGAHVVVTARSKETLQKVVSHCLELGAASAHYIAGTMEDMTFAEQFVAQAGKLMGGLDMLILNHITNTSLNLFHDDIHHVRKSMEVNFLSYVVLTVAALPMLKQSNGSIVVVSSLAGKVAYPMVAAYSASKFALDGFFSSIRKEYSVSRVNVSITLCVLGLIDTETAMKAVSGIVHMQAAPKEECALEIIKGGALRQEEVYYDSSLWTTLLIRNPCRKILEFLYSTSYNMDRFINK
The assay is described as follows: In vitro inhibition of 11β-HSD1, HTRF detection of cortisol generated from cortisone by human liver microsomes. It is filed as biochemical. To be noted: 11β-HSD IC50 (nM), 1 hour at 37° C., pH 6.0, NADPH 200 μM, cortisone 80 nM, inhibition relative to carbenoxolone signal. Put shortly:
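Cortisol formed from cortisone by human liver microsomes quantified by competitive HTRF immunoassay (XL665-cortisol, Eu-cryptate anti-cortisol antibody), 2 h detection, Em665/Em615 ratio converted via cortisol calibration curve. Percent inhibition relative to carbenoxolone signal; IC50 from curves.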

Compound `CC(=O)NCc1ccc2c(c1)CC1N(C(=O)c3ccc4nc[nH]c4c3)CCC2(C)C1(C)C` (stereo not shown) [Example 178, N-[3-(3H-Benzoimidazole-5-carbonyl)-6,11,11-trimethyl-1,2,3,4,5,6-hexahydro-2,6-methano-benzo[d]azocin-9-ylmethyl]-acetamide] gave an IC50 of 159 nM.

In turn, `CC(=O)Nc1ccc2c(c1)CC1N(C(=O)c3ccc4nc[nH]c4c3)CCC2(C)C1(C)C` (stereo not shown) [Example 179, N-[3-(3H-Benzoimidazole-5-carbonyl)-6,11,11-trimethyl-1,2,3,4,5,6-hexahydro-2,6-methano-benzo[d]azocin-9-yl]-acetamide] came in with an IC50 of 199 nM.

On to `Cc1occc1C(=O)N1CC[C@@]2(C)c3cccc(O)c3C[C@@H]1C2(C)C` [Example 180, [(2R,6S)-10-Hydroxy-6,11,11-trimethyl-1,2,5,6-tetrahydro-4H-2,6-methano-benzo[d]azocin-3-yl]-(2-methyl-furan-3-yl)-methanone], for which 1320 nM corresponded to half-maximal inhibition (IC50).

For `CC12CCN(C(=O)c3ccc4nc[nH]c4c3)C(Cc3cc(NS(C)(=O)=O)ccc31)C2(C)C` (stereo not shown) [Example 181, N-[3-(3H-Benzoimidazole-5-carbonyl)-6,11,11-trimethyl-1,2,3,4,5,6-hexahydro-2,6-methano-benzo[d]azocin-9-yl]-methanesulfonamide], the IC50 worked out at 147 nM.

Regarding `CC1(C)C2CCN(C(=O)c3ccc4nc[nH]c4c3)C1Cc1c(O)cccc12` (stereo not shown) [Example 183, (3H-Benzoimidazol-5-yl)-(10-hydroxy-11,11-dimethyl-1,2,5,6-tetrahydro-4H-2,6-methano-benzo[d]azocin-3-yl)-methanone], the IC50 came out at 155 nM.

On to `CC1CN(Cc2ccc(C(=O)N3CC[C@@]4(C)c5cccc(O)c5C[C@@H]3C4(C)C)cc2)CC(C)O1` (stereo partly drawn) [Example 184, [4-(2,6-Dimethyl-morpholin-4-ylmethyl)-phenyl]-[(2R,6S)-10-hydroxy-6,11,11-trimethyl-1,2,5,6-tetrahydro-4H-2,6-methano-benzo[d]azocin-3-yl]-methanone], for which it took 1150 nM to reach half-maximal inhibition (IC50).

Consider `CC1(O)CCN(Cc2ccc(C(=O)N3CC[C@@]4(C)c5cccc(O)c5C[C@@H]3C4(C)C)cc2)CC1` [Example 185, [4-(4-Hydroxy-4-methyl-piperidin-1-ylmethyl)-phenyl]-[(2R,6S)-10-hydroxy-6,11,11-trimethyl-1,2,5,6-tetrahydro-4H-2,6 methano-benzo[d]azocin-3-yl]-methanone], for which half-maximal inhibition (IC50) was put at 5370 nM.

Regarding `CC1(C)[C@H]2Cc3c(O)cccc3[C@]1(C)CCN2C(=O)c1ccc(CN2CC(O)C2)cc1` [Example 187, [4-(3-Hydroxy-azetidin-1-ylmethyl)-phenyl]-[(2R,6S)-10-hydroxy-6,11,11-trimethyl-1,2,5,6-tetrahydro-4H-2,6-methano-benzo[d]azocin-3-yl]-methanone], the concentration for half-maximal inhibition (IC50) was determined as 1960 nM.

`CC1(C)[C@H]2Cc3c(O)cccc3[C@]1(C)CCN2C(=O)c1ccc(CN2CCC(O)C2)cc1` (stereo partly drawn) [Example 188, [4-(3-Hydroxy-pyrrolidin-1-ylmethyl)-phenyl]-[(2R,6S)-10-hydroxy-6,11,11-trimethyl-1,2,5,6-tetrahydro-4H-2,6-methano-benzo[d]azocin-3-yl]-methanone]: 2920 nM corresponded to half-maximal inhibition (IC50).

`COC1CCN(Cc2ccc(C(=O)N3CC[C@@]4(C)c5cccc(O)c5C[C@@H]3C4(C)C)cc2)CC1` [Example 189, [(2R,6S)-10-Hydroxy-6,11,11-trimethyl-1,2,5,6-tetrahydro-4H-2,6-methano-benzo[d]azocin-3-yl]-[4-(4-methoxy-piperidin-1-ylmethyl)-phenyl]-methanone] displayed a 50% inhibitory concentration (IC50) of 2270 nM.

Compound `CC1(C)[C@H]2Cc3c(O)cccc3[C@]1(C)CCN2C(=O)c1ccc(CN2CCC(O)CC2)cc1` [Example 190, [4-(4-Hydroxy-piperidin-1-ylmethyl)-phenyl]-[(2R,6S)-10-hydroxy-6,11,11-trimethyl-1,2,5,6-tetrahydro-4H-2,6-methano-benzo[d]azocin-3-yl]-methanone] returned an IC50 of 1650 nM.

`CC1(C)[C@H]2Cc3c(ccc4[nH]cnc34)[C@]1(C)CCN2C(=O)c1ccc2nc[nH]c2c1` [Example 191, (3H-Benzoimidazol-5-yl)-[(5R,9S)-4,5,6,7,8,9-hexahydro-2,10,12,12-trimethyl-5,9-methano-1H-imidazo[5,4-j][3]benzazocin-6-yl]-methanone] displayed an IC50 of 571 nM.

With `CC1(C)[C@H]2Cc3c(O)cccc3[C@]1(C)CCN2C(=O)c1n[nH]c2ccccc12` [Example 192, [(2R,6S)-10-Hydroxy-6,11,11-trimethyl-1,2,5,6-tetrahydro-4H-2,6-methano-benzo[d]azocin-3-yl]-(1H-indazol-3-yl)-methanone], 434 nM corresponded to half-maximal inhibition (IC50).

The compound `CC1(C)[C@H]2Cc3c(O)cccc3[C@]1(C)CCN2C(=O)c1c[nH]c2ccc(F)cc12` [Example 193, (5-Fluoro-1H-indol-3-yl)-[(2R,6S)-10-hydroxy-6,11,11-trimethyl-1,2,5,6-tetrahydro-4H-2,6-methano-benzo[d]azocin-3-yl]-methanone] yielded an IC50 of 360 nM.

In turn, `Cn1nc(C(=O)N2CC[C@@]3(C)c4cccc(O)c4C[C@@H]2C3(C)C)c2ccccc21` [Example 194, [(2R,6S)-10-Hydroxy-6,11,11-trimethyl-1,2,5,6-tetrahydro-4H-2,6-methano-benzo[d]azocin-3-yl]-(1-methyl-1H-indazol-3-yl)-methanone] gave a half-maximal inhibitory concentration (IC50) of 642 nM.

Consider `COc1cccc2[nH]cc(C(=O)N3CC[C@@]4(C)c5cccc(O)c5C[C@@H]3C4(C)C)c12` [Example 195, [(2R,6S)-10-Hydroxy-6,11,11-trimethyl-1,2,5,6-tetrahydro-4H-2,6-methano-benzo[d]azocin-3-yl]-(4-methoxy-1H-indol-3-yl)-methanone], for which the half-maximal inhibitory concentration (IC50) stood at 2480 nM.

In the case of `CC1(C)[C@H]2Cc3c(O)cccc3[C@]1(C)CCN2C(=O)c1c[nH]c2ccc(Cl)cc12` [Example 196, (5-Chloro-1H-indol-3-yl)-[(2R,6S)-10-hydroxy-6,11,11-trimethyl-1,2,5,6-tetrahydro-4H-2,6-methano-benzo[d]azocin-3-yl]-methanone], the half-maximal inhibitory concentration (IC50) came out at 781 nM.

Take `Cc1[nH]c2ccccc2c1C(=O)N1CC[C@@]2(C)c3cccc(O)c3C[C@@H]1C2(C)C` [Example 197, [(2R,6S)-10-Hydroxy-6,11,11-trimethyl-1,2,5,6-tetrahydro-4H-2,6-methano-benzo[d]azocin-3-yl]-(2-methyl-1H-indol-3-yl)-methanone]: it took 3830 nM to reach half-maximal inhibition (IC50).

The compound `CC1(C)[C@H]2Cc3c(O)cccc3[C@]1(C)CCN2C(=O)c1coc2ccccc12` [Example 198, Benzofuran-3-yl-[(2R,6S)-10-hydroxy-6,11,11-trimethyl-1,2,5,6-tetrahydro-4H-2,6-methano-benzo[d]azocin-3-yl]-methanone] had an IC50 of 435 nM.

For `Cn1cc(C(=O)N2CC[C@@]3(C)c4cccc(O)c4C[C@@H]2C3(C)C)c2ccccc21` [Example 199, [(2R,6S)-10-Hydroxy-6,11,11-trimethyl-1,2,5,6-tetrahydro-4H-2,6-methano-benzo[d]azocin-3-yl]-(1-methyl-1H-indol-3-yl)-methanone], the IC50 was found to be 137 nM.

The compound `CN(C)S(=O)(=O)c1ccc2c(c1)[C@]1(C)CCN(C(=O)c3ccc4nc[nH]c4c3)[C@H](C2)C1(C)C` [Example 201, (2R,6S)-3-(3H-Benzoimidazole-5-carbonyl)-6,11,11-trimethyl-1,2,3,4,5,6-hexahydro-2,6-methano-benzo[d]azocine-8-sulfonic acid dimethylamide] displayed a half-maximal inhibitory concentration (IC50) of 53 nM.

In turn, `CNS(=O)(=O)c1ccc2c(c1)[C@]1(C)CCN(C(=O)c3ccc4nc[nH]c4c3)[C@H](C2)C1(C)C` [Example 202, (2R,6S)-3-(3H-Benzoimidazole-5-carbonyl)-6,11,11-trimethyl-1,2,3,4,5,6-hexahydro-2,6-methano-benzo[d]azocine-8-sulfonic acid methylamide] showed an IC50 of 66 nM.

On to `CC1(C)[C@H]2Cc3ccc(S(N)(=O)=O)cc3[C@]1(C)CCN2C(=O)c1ccc2nc[nH]c2c1` [Example 203, (2R,6S)-3-(3H-Benzoimidazole-5-carbonyl)-6,11,11-trimethyl-1,2,3,4,5,6-hexahydro-2,6-methano-benzo[d]azocine-8-sulfonic acid amide], for which half-maximal inhibition (IC50) required 125 nM.

As for `CC(=O)c1ccc2c(c1)[C@]1(C)CCN(C(=O)c3ccc4nc[nH]c4c3)[C@H](C2)C1(C)C` [Example 204, 1-[(2R,6S)-3-(3H-Benzoimidazole-5-carbonyl)-6,11,11-trimethyl-1,2,3,4,5,6-hexahydro-2,6-methano-benzo[d]azocin-8-yl]-ethanone], it took 27 nM to reach half-maximal inhibition (IC50).

Take `CC(=O)c1ccc2c(c1)C[C@H]1N(C(=O)c3ccc4nc[nH]c4c3)CC[C@]2(C)C1(C)C` [Example 205, 1-[(2R,6S)-3-(3H-Benzoimidazole-5-carbonyl)-6,11,11-trimethyl-1,2,3,4,5,6-hexahydro-2,6-methano-benzo[d]azocin-9-ayl]-ethanone]: the half-maximal inhibitory concentration (IC50) stood at 38 nM.

As for `CC1(C)[C@H]2Cc3cc(C#N)ccc3[C@]1(C)CCN2C(=O)c1ccc2nc[nH]c2c1` [Example 206, (2R,6S)-3-(3H-Benzoimidazole-5-carbonyl)-6,11,11-trimethyl-1,2,3,4,5,6-hexahydro-2,6-methano-benzo[d]azocine-9-carbonitrile], inhibition was half-maximal at 47 nM (IC50).

Compound `CC1(C)[C@H]2Cc3c(O)cccc3[C@]1(C)CCN2C(=O)c1ccc(CN2CCOCC2=O)cc1` [Example 207, 4-[(2R,6S)-4-(10-Hydroxy-6,11,11-trimethyl 1,2,5,6-tetrahydro-4H-2,6-methano-benzo[d]azocine-3-carbonyl)-benzyl]-morpholin-3-one] yielded a concentration for half-maximal inhibition (IC50) of 224 nM.

`CN(C(=O)c1ccc(C(=O)N2CC[C@@]3(C)c4cccc(O)c4C[C@@H]2C3(C)C)cc1)c1ccccc1` [Example 208, 4-[(2R,6S)-10-Hydroxy-6,11,11-trimethyl-1,2,5,6-tetrahydro-4H-2,6-methano-benzo[d]azocine-3-carbonyl]-N-methyl-N-phenyl-benzamide] yielded a concentration for half-maximal inhibition (IC50) of 238 nM.
